The data set deals with ATP-dependent translocase ABCB1 (Homo sapiens, UniProt P08183). The data set can be described thus: TP_TRANSPORTER: transepithelial transport (basal to apical) in MDR1-expressing LLC-PK1 cells. The following applies: pig. In kind it is functional, cell-based.
Sequence of ATP-dependent translocase ABCB1 (P08183 whole entry): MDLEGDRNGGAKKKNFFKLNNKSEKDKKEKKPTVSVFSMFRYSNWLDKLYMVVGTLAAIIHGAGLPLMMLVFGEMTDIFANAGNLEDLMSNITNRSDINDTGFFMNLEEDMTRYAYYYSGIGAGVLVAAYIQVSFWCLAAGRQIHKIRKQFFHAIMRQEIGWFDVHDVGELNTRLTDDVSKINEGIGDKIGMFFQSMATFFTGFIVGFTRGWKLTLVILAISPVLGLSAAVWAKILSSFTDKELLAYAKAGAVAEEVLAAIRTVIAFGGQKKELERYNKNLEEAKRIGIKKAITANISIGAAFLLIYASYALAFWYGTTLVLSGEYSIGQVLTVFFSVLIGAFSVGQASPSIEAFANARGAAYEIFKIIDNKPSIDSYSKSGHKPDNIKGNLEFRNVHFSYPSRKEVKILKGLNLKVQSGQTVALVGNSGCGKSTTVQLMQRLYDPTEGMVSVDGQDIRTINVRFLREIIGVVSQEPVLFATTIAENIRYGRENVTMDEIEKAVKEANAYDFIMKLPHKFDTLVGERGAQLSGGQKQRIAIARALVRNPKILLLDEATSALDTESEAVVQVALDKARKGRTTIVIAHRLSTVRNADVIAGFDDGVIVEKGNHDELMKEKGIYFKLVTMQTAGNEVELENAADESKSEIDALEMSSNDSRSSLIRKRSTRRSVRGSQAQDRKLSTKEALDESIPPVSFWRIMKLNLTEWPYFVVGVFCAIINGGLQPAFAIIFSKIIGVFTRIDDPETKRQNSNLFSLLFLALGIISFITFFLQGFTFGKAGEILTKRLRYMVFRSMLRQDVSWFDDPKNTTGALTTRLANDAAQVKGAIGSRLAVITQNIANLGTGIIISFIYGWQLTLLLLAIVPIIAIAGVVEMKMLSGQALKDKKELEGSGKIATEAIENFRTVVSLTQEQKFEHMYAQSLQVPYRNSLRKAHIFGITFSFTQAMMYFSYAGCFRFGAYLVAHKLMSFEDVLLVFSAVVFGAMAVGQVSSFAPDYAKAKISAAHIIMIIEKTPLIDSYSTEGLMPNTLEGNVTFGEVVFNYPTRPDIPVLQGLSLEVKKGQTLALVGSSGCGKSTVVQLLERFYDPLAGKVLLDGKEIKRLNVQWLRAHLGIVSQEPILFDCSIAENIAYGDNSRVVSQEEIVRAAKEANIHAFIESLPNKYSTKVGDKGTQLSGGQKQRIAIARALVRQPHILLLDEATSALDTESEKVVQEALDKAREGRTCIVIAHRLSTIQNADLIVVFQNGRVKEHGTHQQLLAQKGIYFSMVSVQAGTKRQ
Consider `CC(=O)O[C@H]1C[C@H](O[C@H]2[C@@H](O)C[C@H](O[C@H]3[C@@H](O)C[C@H](O[C@H]4CC[C@@]5(C)[C@H](CC[C@@H]6[C@@H]5C[C@@H](O)[C@]5(C)[C@@H](C7=CC(=O)OC7)CC[C@]65O)C4)O[C@@H]3C)O[C@@H]2C)O[C@H](C)[C@H]1O` [ACETYLDIGOXIN], for which the Activity entry is “substrate [+]”.
The result for `O=C(O)CCC(=O)C(=O)O` [ALPHA-KETOGLUTARIC ACID] reads “substrate [+]”; that for `C[C@H]1O[C@@H](O[C@H]2[C@@H](O)C[C@H](O[C@H]3[C@@H](O)C[C@H](O[C@H]4CC[C@@]5(C)[C@H](CC[C@@H]6[C@@H]5CC[C@]5(C)[C@@H](C7=CC(=O)OC7)CC[C@]65O)C4)O[C@@H]3C)O[C@@H]2C)C[C@H](O)[C@@H]1O` [DIGITOXIN], “substrate [+]”.
